In brackets after ≈: the same amount, converted by molar mass.
Columns and labels:
MCF7 = assay: Cytotoxicity against human MCF7 cells assessed as reduction in cell viability after 24 hrs by MTT assay; format: functional, cell-based; settings: MCF7, 24 h
UO-31 [1] = assay: Cytotoxicity against human UO31 cells assessed as reduction in cell viability after 24 hrs by MTT assay; format: functional, cell-based; settings: UO-31, 24 h
K562 = assay: Growth inhibition of human K562 cells at 10^-5 M incubated for 48 hrs by sulforhodamine B assay; format: functional; settings: K562, 48 h, read-out: GI
EKVX = assay: Growth inhibition of human EKVX cells at 10^-5 M incubated for 48 hrs by sulforhodamine B assay; format: functional; settings: read-out: GI
HOP-62 = assay: Growth inhibition of human HOP62 cells at 10^-5 M incubated for 48 hrs by sulforhodamine B assay; format: functional; settings: HOP-62, 48 h, read-out: GI
HOP-92 = assay: Growth inhibition of human HOP92 cells at 10^-5 M incubated for 48 hrs by sulforhodamine B assay; format: functional; settings: HOP-92, 48 h, read-out: GI
NCI-H226 = assay: Growth inhibition of human NCI-H226 cells at 10^-5 M incubated for 48 hrs by sulforhodamine B assay; format: functional; settings: NCI-H226, 48 h, read-out: GI
COLO 205 = assay: Growth inhibition of human COLO205 cells at 10^-5 M incubated for 48 hrs by sulforhodamine B assay; format: functional; settings: COLO 205, 48 h, read-out: GI
HCC 2998 = assay: Growth inhibition of human HCC2998 cells at 10^-5 M incubated for 48 hrs by sulforhodamine B assay; format: functional; settings: HCC 2998, 48 h, read-out: GI
HT-29 = assay: Growth inhibition of human HT-29 cells at 10^-5 M incubated for 48 hrs by sulforhodamine B assay; format: functional; settings: HT-29, 48 h, read-out: GI
KM12 = assay: Growth inhibition of human KM12 cells at 10^-5 M incubated for 48 hrs by sulforhodamine B assay; format: functional; settings: KM12, 48 h, read-out: GI
SF-539 = assay: Growth inhibition of human SF539 cells at 10^-5 M incubated for 48 hrs by sulforhodamine B assay; format: functional; settings: SF-539, 48 h, read-out: GI
U-251 = assay: Growth inhibition of human U251 cells at 10^-5 M incubated for 48 hrs by sulforhodamine B assay; format: functional; settings: U-251, 48 h, read-out: GI
MDA-MB-435 = assay: Growth inhibition of human MDA-MB-435 cells at 10^-5 M incubated for 48 hrs by sulforhodamine B assay; format: functional; settings: MDA-MB-435, 48 h, read-out: GI
SK-MEL-2 = assay: Growth inhibition of human SK-MEL-2 cells at 10^-5 M incubated for 48 hrs by sulforhodamine B assay; format: functional; settings: SK-MEL-2, 48 h, read-out: GI
UACC-257 = assay: Growth inhibition of human UACC257 cells at 10^-5 M incubated for 48 hrs by sulforhodamine B assay; format: functional; settings: UACC-257, 48 h, read-out: GI
OVCAR-4 = assay: Growth inhibition of human OVCAR4 cells at 10^-5 M incubated for 48 hrs by sulforhodamine B assay; format: functional; settings: OVCAR-4, 48 h, read-out: GI
CAKI-1 = assay: Growth inhibition of human Caki1 cells at 10^-5 M incubated for 48 hrs by sulforhodamine B assay; format: functional; settings: CAKI-1, 48 h, read-out: GI
UO-31 [2] = assay: Growth inhibition of human UO31 cells at 10^-5 M incubated for 48 hrs by sulforhodamine B assay; format: functional; settings: UO-31, 48 h, read-out: GI
PC-3 = assay: Growth inhibition of human PC3 cells at 10^-5 M incubated for 48 hrs by sulforhodamine B assay; format: functional; settings: PC-3, 48 h, read-out: GI
BT-549 = assay: Growth inhibition of human BT549 cells at 10^-5 M incubated for 48 hrs by sulforhodamine B assay; format: functional; settings: BT-549, 48 h, read-out: GI
MDA-MB-468 = assay: Growth inhibition of human MDA-MB-468 cells at 10^-5 M incubated for 48 hrs by sulforhodamine B assay; format: functional; settings: MDA-MB-468, 48 h, read-out: GI

| SMILES | IC50 (MCF7) [mg/L] | IC50 (UO-31 [1]) [mg/L] | inhibition of growth at 10 µM (K562) [%] | inhibition of growth at 10 µM (EKVX) [%] | inhibition of growth at 10 µM (HOP-62) [%] | inhibition of growth at 10 µM (HOP-92) [%] | inhibition of growth at 10 µM (NCI-H226) [%] | inhibition of growth at 10 µM (COLO 205) [%] | inhibition of growth at 10 µM (HCC 2998) [%] | inhibition of growth at 10 µM (HT-29) [%] | inhibition of growth at 10 µM (KM12) [%] | inhibition of growth at 10 µM (SF-539) [%] | inhibition of growth at 10 µM (U-251) [%] | inhibition of growth at 10 µM (MDA-MB-435) [%] | inhibition of growth at 10 µM (SK-MEL-2) [%] | inhibition of growth at 10 µM (UACC-257) [%] | inhibition of growth at 10 µM (OVCAR-4) [%] | inhibition of growth at 10 µM (CAKI-1) [%] | inhibition of growth at 10 µM (UO-31 [2]) [%] | inhibition of growth at 10 µM (PC-3) [%] | other results |
| --- | --- | --- | --- | --- | --- | --- | --- | --- | --- | --- | --- | --- | --- | --- | --- | --- | --- | --- | --- | --- | --- |
| CCOC(=O)CSC1=Nc2c(sc3ccc(Cl)cc23)C(c2cccc([N+](=O)[O-])c2)N1 (stereo not drawn) | 22.1 (≈ 47.9 µM) | 11.8 (≈ 25.6 µM) | 10.3 | 15.9 | 19.6 | -10.1 | 8.28 | -3.41 | -16.9 | -15.9 | -0.19 | -3.84 | 3.38 | -10.6 | -6.23 | 2.03 | -4.53 | 16.5 | 44.7 | 9.33 | inhibition of growth at 10 µM (BT-549): -12.4%; inhibition of growth at 10 µM (MDA-MB-468): -24.4% |
| O=C1/C(=C\c2ccc3ccccc3c2)Sc2ccc(Cl)cc21 | 43.9 (≈ 136 µM) | 39.9 (≈ 124 µM) | 2.65 | 12.7 | 5.71 | 27.3 | 17.9 | -10.7 | -27.2 | -1.78 | -1.53 | -8.09 | -1.36 | -2.15 | -0.66 | -3.36 | 12.3 | 27.9 | -5.61 | 11.6 | inhibition of growth at 10 µM (BT-549): -9.47%; inhibition of growth at 10 µM (MDA-MB-468): -6.42% |
| N#Cc1cnn(C2=Nc3c(sc4ccc(Cl)cc34)C(c3cccc([N+](=O)[O-])c3)N2)c1N (stereo not drawn) | 11.9 (≈ 26.5 µM) | 32.5 (≈ 72.2 µM) | 1.28 | 20.9 | 5.61 | 1.55 | 19.2 | -3.42 | -3.42 | -17.9 | 3.84 | 2.87 | -11.2 | -7.15 | -5.14 | -3.69 | -1.38 | -3.28 | 41.2 | 11 | inhibition of growth at 10 µM (BT-549): -5.52%; inhibition of growth at 10 µM (MDA-MB-468): 3.7% |
| O=[N+]([O-])c1cccc(C2NC(N3CCOCC3)=Nc3c2sc2ccc(Cl)cc32)c1 (stereo not drawn) | 10.4 (≈ 24.3 µM) | 3.11 (≈ 7.25 µM) | -3.76 | 16.4 | 9.52 | 10.1 | 14.4 | -6.02 | -6.02 | -2.72 | 4.2 | 6.94 | 1.11 | -6.59 | -1.1 | -6.32 | 1.77 | 27.7 | 41.8 | 23 | inhibition of growth at 10 µM (BT-549): -6.2%; inhibition of growth at 10 µM (MDA-MB-468): -5.77% |
